Converted amounts (≈) assume the structure as drawn.
Key:
[1] = Ratio of drug level in rat liver to plasma; format: ADME
[2] = Oral bioavailability in rat; format: ADME, organism-based; conditions: in vivo
[3] = Lipophilicity, log D of the compound at pH 7.4 by chromatographic method; format: physicochemical; conditions: buffer
physchem = conditions: aqueous
[4] = Oral bioavailability in human; format: ADME, organism-based; conditions: in vivo
[5] = Solubility of the compound in pH 7.4 solution; format: physicochemical
[6] = Solubility of the compound in FaSSIF; format: physicochemical

With `COC(=O)N[C@H](C(=O)N1CCC[C@H]1c1nc(-c2ccc(-c3ccc(-c4c[nH]c([C@@H]5CCCN5C(=O)[C@@H](NC(=O)OC)C(C)C)n4)cc3)cc2)c[nH]1)C(C)C` the Kp [1] was 5 and the bioavailability [2] was 50%.

`COc1cc2c(cc1Cc1cccc(Cl)c1F)c(=O)c(C(=O)O)cn2[C@H](CO)C(C)C` showed a chromatographic logD [3] of 6.4.

Work on `CCC[C@H](NC(=O)[C@@H]1[C@H]2CCC[C@H]2CN1C(=O)[C@@H](NC(=O)[C@@H](NC(=O)c1cnccn1)C1CCCCC1)C(C)(C)C)C(=O)C(=O)NC1CC1` yielded a solubility (physchem) of 4.7 µg/mL (≈ 6.91 µM).

With `Cc1nnc(C(=O)NC(C)(C)c2nc(C(=O)NCc3ccc(F)cc3)c(O)c(=O)n2C)o1` the chromatographic logD [3] was 3.3.

`Cc1nnc(C(C)C)n1C1C[C@@H]2CC[C@@H](C1)N2CC[C@H](NC(=O)C1CCC(F)(F)CC1)c1ccccc1` (some centres undefined) showed a bioavailability [4] of 23%.

`C[C@@H]1CCO[C@H]2Cn3cc(C(=O)NCc4ccc(F)cc4F)c(=O)c(O)c3C(=O)N12` [DOLUTEGRAVIR] gave a chromatographic logD [3] of 3.7.

Work on `CC1(C)CCC(CN2CCN(c3ccc(C(=O)NS(=O)(=O)c4ccc(NCC5CCOCC5)c([N+](=O)[O-])c4)c(Oc4cnc5[nH]ccc5c4)c3)CC2)=C(c2ccc(Cl)cc2)C1` [VENETOCLAX] yielded a solubility [5] of 0.4 µg/mL (≈ 0.461 µM) and a solubility [6] of 11 µg/mL (≈ 12.7 µM).
